Among the data in patent US20220281821A1, “INDAZOLE COMPOUNDS AND THEIR PHARMACEUTICAL COMPOSITIONS” (Jinan University, priority 2019, published 2022) are IC50 values, retold here.

Format in all cases: cell-based, mouse
In one assay the target is T1, BaF3-CD74-NTRK1 (Homo sapiens, UniProt P04629).
T1 construct: fused on or other part: P04233 (HLA class II histocompatibility antigen gamma chain)
In words: Cell proliferation inhibition (CCK-8), BaF3-CD74-NTRK1 stable strain. The conditions noted are these: BaF3-CD74-NTRK1, 72 hours. Here is the method: (§1) The brief steps of stable strain construction are as follows: construct a pCDNA3.1(+) plasmid vector carrying genes such as CD74-NTRK1, ETV6-NTRK2 and ETV6-NTRK3; the plasmid was electroporated into Ba/F3 cells using the Amaxa® Cell Line Nucleofector® Kit V; 48 hours after electroporated, G418 with a final concentration of 1000 μg/ml was added for screening for two weeks, and then IL3 was removed, and continued screening to obtain polyclonal stable strains; then single clones were selected by a limiting dilution method. The stable strains were then identified using positive drugs, WB and gene sequencing; and the monoclonal clones that were identified as completely correct may be used for the study of cell proliferation inhibitory activity of inhibitors.
(§2) Cell proliferation inhibition activity study: the cells in the logarithmic growth phase were seeded into 96-well plates at 8000-12000 cells/well, and inhibitors at different concentrations (0-10 μM) were added the next day, and incubation was continued for 72 hours; then 10 μL of CCK-8 reagent was added to each well, and the incubation was continued for 1-3 hours; and then use a super microplate reader to measure their absorbance values at 450 nm and 650 nm. The half-inhibition concentration (IC50) was calculated using GraphPad Prism 8.0.0.

The target of another assay is T2, BaF3-ETV6-NTRK2 (Homo sapiens, UniProt Q16620).
T2 construct: fused on or other part: P41212 (Transcription factor ETV6)
T2 sequence (Q16620 538-822 limits assumed): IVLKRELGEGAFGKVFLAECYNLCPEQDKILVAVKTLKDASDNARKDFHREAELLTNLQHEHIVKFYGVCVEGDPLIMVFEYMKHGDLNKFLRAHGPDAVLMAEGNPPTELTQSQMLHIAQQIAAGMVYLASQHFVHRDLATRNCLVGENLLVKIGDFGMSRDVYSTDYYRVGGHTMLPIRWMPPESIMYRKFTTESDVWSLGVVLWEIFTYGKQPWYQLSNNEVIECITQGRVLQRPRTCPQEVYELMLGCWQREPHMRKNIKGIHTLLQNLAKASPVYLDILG
As to the kind of experiment: Cell proliferation inhibition (CCK-8), BaF3-ETV6-NTRK2 stable strain. The settings on record: BaF3-ETV6-NTRK2, 72 hours. On the procedure: as §1, §2

The next assay has as its target T3, BaF3-ETV6-NTRK3 (Homo sapiens, UniProt Q16288).
T3 construct: fused on or other part: P41212 (Transcription factor ETV6)
As to the kind of experiment: Cell proliferation inhibition (CCK-8), BaF3-ETV6-NTRK3 stable strain. The settings on record: BaF3-ETV6-NTRK3, 72 hours. Here is the method: as §1, §2

T1 sequence (P04629 510-796 limits assumed): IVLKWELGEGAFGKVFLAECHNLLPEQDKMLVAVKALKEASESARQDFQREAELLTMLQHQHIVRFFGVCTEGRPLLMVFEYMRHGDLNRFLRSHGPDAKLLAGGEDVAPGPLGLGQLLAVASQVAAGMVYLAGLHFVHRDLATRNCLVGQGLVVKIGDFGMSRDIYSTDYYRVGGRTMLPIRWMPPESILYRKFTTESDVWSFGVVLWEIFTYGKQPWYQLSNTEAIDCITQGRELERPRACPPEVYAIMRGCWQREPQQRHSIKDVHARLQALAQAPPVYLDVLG
T3 sequence (Q16288 whole entry, the tested form may be a part): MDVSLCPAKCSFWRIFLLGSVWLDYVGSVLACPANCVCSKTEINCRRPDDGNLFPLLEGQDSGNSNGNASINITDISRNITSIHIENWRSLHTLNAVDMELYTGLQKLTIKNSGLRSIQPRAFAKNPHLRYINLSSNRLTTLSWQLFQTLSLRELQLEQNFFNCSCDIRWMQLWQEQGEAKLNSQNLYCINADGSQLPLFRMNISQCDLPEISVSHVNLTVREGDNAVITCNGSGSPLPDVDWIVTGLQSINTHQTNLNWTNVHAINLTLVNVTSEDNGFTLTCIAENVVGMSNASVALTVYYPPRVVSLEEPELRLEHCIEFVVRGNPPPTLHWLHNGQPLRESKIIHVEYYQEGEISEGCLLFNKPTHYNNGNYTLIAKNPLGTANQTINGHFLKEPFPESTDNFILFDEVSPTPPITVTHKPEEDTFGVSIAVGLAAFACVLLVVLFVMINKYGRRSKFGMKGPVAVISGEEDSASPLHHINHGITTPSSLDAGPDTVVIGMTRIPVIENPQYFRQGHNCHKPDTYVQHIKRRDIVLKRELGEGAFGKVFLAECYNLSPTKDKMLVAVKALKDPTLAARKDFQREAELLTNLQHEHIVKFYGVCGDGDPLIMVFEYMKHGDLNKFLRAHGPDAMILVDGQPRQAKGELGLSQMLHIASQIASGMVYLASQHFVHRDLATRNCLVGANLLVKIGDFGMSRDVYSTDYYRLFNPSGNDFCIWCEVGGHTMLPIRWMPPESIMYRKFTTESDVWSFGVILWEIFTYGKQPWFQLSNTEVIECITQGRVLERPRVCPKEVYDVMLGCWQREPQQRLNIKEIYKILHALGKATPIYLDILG

The term IC50 denotes the concentration that inhibits the measured activity by half. Low values mean greater potency in that assay, high ones weaker potency in that assay. Take `C[C@@H](Nc1ccc2[nH]nc(/C=C/c3cnccn3)c2c1)c1cc(F)cc(F)c1` [DYX-411, (R,E)-N-(1-(3,5-difluorophenyl)ethyl)-3-(2-(pyrazin-2-yl)vinyl)-1H-indazol-5-amine]: the figures for the IC50 on BaF3-CD74-NTRK1, against BaF3-ETV6-NTRK2 and against BaF3-ETV6-NTRK3 were 35.7 nM, 38 nM and 11 nM, respectively.
Take `Cc1ccccc1/C=C/c1n[nH]c2ccc(Cc3cc(F)cc(F)c3)cc12` [Example D01F08, (E)-5-(3,5-difluorobenzyl)-3-(2-methylstyryl)-1H-indazole]: the IC50 against BaF3-CD74-NTRK1 is 112 nM; on BaF3-ETV6-NTRK2 it was 400 nM; at BaF3-ETV6-NTRK3 it was 158 nM.
Taken in the same sequence, the figures for `Fc1cc(Cl)cc(Cc2ccc3[nH]nc(/C=C/c4ccccn4)c3c2)c1` [Example D02F01, (E)-5-(3-chloro-5-fluorobenzyl)-3-(2-(pyridin-2-yl)vinyl)-1H-indazole] were 204 nM, 362 nM and 151 nM.
As for `NC(=O)/C=C/c1n[nH]c2ccc(NCc3cc(F)cc(F)c3)cc12` [DYX-223, (E)-3-(5-((3,5-difluorobenzyl)amino)-1H-indazol-3-yl)acrylamide], the IC50 at BaF3-CD74-NTRK1 was 37.7 nM; on BaF3-ETV6-NTRK2, 24.3 nM; at BaF3-ETV6-NTRK3, 35.6 nM.
The like results for `COc1ccc(F)cc1Cc1ccc2[nH]nc(/C=C/c3ccccn3)c2c1` [Example D09F01, (E)-5-(5-fluoro-2-methoxybenzyl)-3-(2-(pyridin-2-yl)vinyl)-1H-indazole] were, in that order, 40.6 nM, 56.1 nM and 18.1 nM.
Taken in the same sequence, the figures for `O=S(=O)(Nc1ccc2[nH]nc(/C=C/c3ccccn3)c2c1)c1cncc(F)c1` [CHW-9, (E)-5-fluoro-N-(3-(2-(pyridin-2-yl)vinyl)-1H-indazol-5-yl)pyridine-3-sulfonamide] were 60.8 nM, 134 nM and 121 nM.
`Cc1cc(F)cc(CNc2ccc3[nH]nc(/C=C/c4ccccn4)c3c2)c1` [DYX-401, (E)-N-(3-fluoro-5-methylbenzyl)-3-(2-(pyridin-2-yl)vinyl)-1H-indazol-5-amine]: the IC50 at BaF3-CD74-NTRK1 is 113 nM; against BaF3-ETV6-NTRK2, 448 nM; against BaF3-ETV6-NTRK3, 112 nM.
The like results for `CC(C)OCCn1cc(/C=C/c2n[nH]c3ccc(NS(=O)(=O)c4cc(F)cc(F)c4)cc23)cn1` [CHW-12] were, in that order, 33.8 nM, 55.8 nM and 48.1 nM.
Taken in the same sequence, the figures for `C[C@@H](Nc1ccc2[nH]nc(/C=C/c3ccncc3)c2c1)c1cc(F)cc(F)c1` [DYX-410, (R,E)-N-(1-(3,5-difluorophenyl)ethyl)-3-(2-(pyridin-4-yl)vinyl)-1H-indazol-5-amine] were 10.3 nM, 11.7 nM and 3.5 nM.
The like results for `CCn1cc(/C=C/c2n[nH]c3ccc(NS(=O)(=O)c4cc(F)cc(F)c4)cc23)cn1` [Example D5218, (E)-3,5-difluoro-N-(3-(2-(1-ethyl-1H-pyrazol-4-yl)vinyl)-1H-indazol-5-yl)benzenesulfonamide] were, in that order, 10.6 nM, 19.1 nM and 14.1 nM.
Consider `COc1cc(F)cc(Cc2ccc3[nH]nc(/C=C/c4ccccn4)c3c2)c1` [Example D05F01, (E)-5-(3-fluoro-5-methoxybenzyl)-3-(2-(pyridin-2-yl)vinyl)-1H-indazole], for which the IC50 against BaF3-CD74-NTRK1 came to 203 nM; on BaF3-ETV6-NTRK2 it was 462 nM; against BaF3-ETV6-NTRK3, 367 nM.
With `O=S(=O)(Nc1ccc2[nH]nc(/C=C/c3cnn(CC(F)F)c3)c2c1)c1cc(F)cc(F)c1` [CHW-6], the results for the IC50 on BaF3-CD74-NTRK1, at BaF3-ETV6-NTRK2 and against BaF3-ETV6-NTRK3 were 23 nM, 60.1 nM and 53.5 nM, respectively.
As for `Fc1cc(CNc2ccc3[nH]nc(/C=C/c4ccccn4)c3c2)cc(C(F)(F)F)c1` [DYX-414, (E)-N-(3-fluoro-5-(trifluoromethyl)benzyl)-3-(2-(pyridin-2-yl)vinyl)-1H-indazol-5-amine], the IC50 against BaF3-CD74-NTRK1 is 196 nM; against BaF3-ETV6-NTRK2, 2520 nM; against BaF3-ETV6-NTRK3, 1180 nM.
The like results for `O=S(=O)(Nc1ccc2[nH]nc(/C=C/c3ccccn3)c2c1)c1cccc(F)c1` [CHW-5, (E)-3-fluoro-N-(3-(2-(pyridin-2-yl)vinyl)-1H-indazol-5-yl)benzene sulfonamide] were, in that order, 27.3 nM, 70.1 nM and 59.5 nM.
As for `C[C@@H](Nc1ccc2[nH]nc(/C=C/c3cnn(CCO)c3)c2c1)c1cc(F)cc(F)c1` [DYX-327, (R,E)-2-(4-(2-(5-((1-(3,5-difluorophenyl)ethyl)amino)-1H-indazol-3-yl)vinyl)-1H-pyrazol-1-yl)-1-ethanol], the 50% inhibitory concentration (IC50) against BaF3-CD74-NTRK1 was determined as 1.4 nM; on BaF3-ETV6-NTRK2 it was 17.6 nM; at BaF3-ETV6-NTRK3 it was 5.4 nM.
Taken in the same sequence, the figures for `C[C@@H](Nc1ccc2[nH]nc(/C=C/c3cccnc3)c2c1)c1cc(F)cc(F)c1` [DYX-409, (R,E)-N-(1-(3,5-difluorophenyl)ethyl)-3-(2-(pyridin-3-yl)vinyl)-1H-indazol-5-amine] were 6.4 nM, 36.9 nM and 7.7 nM.
As for `CC(C)(C)NC(=O)/C=C/c1n[nH]c2ccc(NCc3cc(F)cc(F)c3)cc12` [DYX-230, (E)-N-tert-butyl-3-(5-((3,5-difluorobenzyl)amino)-1H-indazol-3-yl)acrylamide], the IC50 against BaF3-CD74-NTRK1 is 682 nM; at BaF3-ETV6-NTRK2 it was 303 nM; on BaF3-ETV6-NTRK3 it was 359 nM.
Regarding `Clc1cc(Cl)cc(Cc2ccc3[nH]nc(/C=C/c4ccccn4)c3c2)c1` [Example D06F01, (E)-5-(3,5-dichlorobenzyl)-3-(2-(pyridin-2-yl)vinyl)-1H-indazole], the IC50 at BaF3-CD74-NTRK1 was 564 nM; at BaF3-ETV6-NTRK2, more than 10000 nM; against BaF3-ETV6-NTRK3, 851 nM.
The like results for `CC(C)n1cc(/C=C/c2n[nH]c3ccc(NS(=O)(=O)c4cc(F)cc(F)c4)cc23)cn1` [CHW-7, (E)-3,5-difluoro-N-(3-(2-(1-isopropyl-1H-pyrazol-4-yl)vinyl)-1H-indazol-5-yl)benzenesulfonamide] were, in that order, 33.4 nM, 57.8 nM and 40.9 nM.
Taken in the same sequence, the figures for `Fc1cncc(CNc2ccc3[nH]nc(/C=C/c4ccccn4)c3c2)c1` [DYX-419, (E)-N-((5-fluoropyridin-3-yl)methyl)-3-(2-(pyridin-2-yl)vinyl)-1H-indazol-5-amine] were 2.4 nM, 11.9 nM and 4 nM.
Take `O=C(/C=C/c1n[nH]c2ccc(NCc3cc(F)cc(F)c3)cc12)N1CCOCC1` [DYX-222, (E)-3-(5-((3,5-difluorobenzyl)amino)-1H-indazol-3-yl)-1-morpholinoprop-2-en-1-one]: the values for the 50% inhibitory concentration (IC50) against BaF3-CD74-NTRK1, on BaF3-ETV6-NTRK2 and on BaF3-ETV6-NTRK3 were 37.3 nM, 54.7 nM and 41.5 nM, respectively.
Taken in the same sequence, the figures for `N#Cc1cc(F)cc(CNc2ccc3[nH]nc(/C=C/c4ccccn4)c3c2)c1` [DYX-402, (E)-3-fluoro-5-(((3-(2-(pyridin-2-yl)vinyl)-1H-indazol-5-yl)amino)methyl)benzonitrile] were 28.2 nM, 53.5 nM and 22.6 nM.
Taken in the same sequence, the figures for `C[C@@H](Nc1ccc2[nH]nc(/C=C/c3cnn(C)c3)c2c1)c1cc(F)cc(F)c1` [DYX-346, (R,E)-N-(1-(3,5-difluorophenyl)ethyl)-3-(2-(1-methyl-1H-pyrazol-4-yl)vinyl)-1H-indazol-5-amine] were 6.5 nM, 9.5 nM and 3.1 nM.
As for `CC(C)NC(=O)/C=C/c1n[nH]c2ccc(NCc3cc(F)cc(F)c3)cc12` [DYX-231, (E)-3-(5-((3,5-difluorobenzyl)amino)-1H-indazol-3-yl)-N-isopropylacrylamide], the IC50 on BaF3-CD74-NTRK1 stood at 619 nM; against BaF3-ETV6-NTRK2, 780 nM; against BaF3-ETV6-NTRK3 it was 547 nM.
As to `COCCn1cc(/C=C/c2n[nH]c3ccc(NS(=O)(=O)c4cc(F)cc(F)c4)cc23)cn1` [CHW-13], the figures for the IC50 on BaF3-CD74-NTRK1, against BaF3-ETV6-NTRK2 and on BaF3-ETV6-NTRK3 were 40.2 nM, 52.3 nM and 41.3 nM, respectively.
Turning to `CNC(=O)Cn1cc(/C=C/c2n[nH]c3ccc(NS(=O)(=O)c4cc(F)cc(F)c4)cc23)cn1` [CHW-14, (E)-2-(4-(2-(5-((3,5-difluorophenyl)sulfonamido)-1H-indazol-3-yl)vinyl)-1H-pyrazol-1-yl)-N-methylacetamide], the IC50 against BaF3-CD74-NTRK1 turned out to be 331 nM; at BaF3-ETV6-NTRK2, 427 nM; on BaF3-ETV6-NTRK3 it was 350 nM.
Regarding `C[C@@H](Nc1cc2c(/C=C/c3ccccn3)n[nH]c2cn1)c1cc(F)cc(F)c1` [DYX-340, (R,E)-N-(1-(3,5-difluorophenyl)ethyl)-3-(2-(pyridin-2-yl)vinyl)-1H-pyrazolo[3,4-c]pyridin-5-amine], the IC50 against BaF3-CD74-NTRK1 came out at 18.7 nM; on BaF3-ETV6-NTRK2, 160 nM; against BaF3-ETV6-NTRK3 it was 68 nM.
Consider `Fc1cc(Cl)cc(CNc2ccc3[nH]nc(/C=C/c4ccccn4)c3c2)c1` [DYX-400, (E)-N-(3-fluoro-5-chlorobenzyl)-3-(2-(pyridin-2-yl)vinyl)-1H-indazol-5-amine], for which the results for the IC50 against BaF3-CD74-NTRK1, at BaF3-ETV6-NTRK2 and against BaF3-ETV6-NTRK3 were 59 nM, 154 nM and 41.1 nM, respectively.
